Experimental findings from ChEMBL document CHEMBL2429836, “Theoretical studies, synthesis, and biological activity of 1-[(4-methylphenyl)sulfonyl]-5-oxo-2,3,4,5-tetrahydro-1H-1-benzazepine-4-carbonitrile (C9) as a non-peptide antagonist of the arginine vasopressin V1a and V2 receptors” (Med Chem Res, 2013) are described below.

Activity calls are given as the source filed them. The calls are words filed in the database; no cut-off is given here. Numbered stars: 1 amine (or outer) side, 2 acyl side, 3 side chain; on linkers, the order of the positions; unused ones are H or OH. Bridge positions count the residues as written; N and C are the ends. Peptide text beside a SMILES is read from it. X1 = CC(C)(CC(=O)[*:1])S[*:2]

In assay [1] the target is Vasopressin V1a receptor (Rattus norvegicus) (UniProt P30560). Nature of the assay: Antagonist activity at vasopressin V1a receptor in rat thoracic aorta assessed as inhibition of AVP-induced vascular smooth muscle contraction. It is filed as tissue-based.
Chain of Vasopressin V1a receptor (Rattus norvegicus) (P30560 whole entry, looked up): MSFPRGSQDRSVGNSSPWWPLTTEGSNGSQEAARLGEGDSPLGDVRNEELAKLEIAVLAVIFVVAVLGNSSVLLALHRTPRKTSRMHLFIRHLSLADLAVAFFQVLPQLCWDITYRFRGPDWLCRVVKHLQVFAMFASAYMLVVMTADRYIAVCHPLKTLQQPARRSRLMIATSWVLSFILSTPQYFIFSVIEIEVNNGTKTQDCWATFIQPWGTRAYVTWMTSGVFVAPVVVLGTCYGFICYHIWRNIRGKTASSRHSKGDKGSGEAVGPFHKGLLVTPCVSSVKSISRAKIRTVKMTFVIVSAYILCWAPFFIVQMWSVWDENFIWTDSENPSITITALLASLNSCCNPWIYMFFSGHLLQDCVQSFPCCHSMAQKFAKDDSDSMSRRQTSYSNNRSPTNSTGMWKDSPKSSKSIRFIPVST
For assay [2] the target is unchanged. The assay can be described thus: Antagonist activity at vasopressin V1a receptor in rat thoracic aorta assessed as inhibition of AVP-induced vascular smooth muscle contraction at 59 uM. It is filed as tissue-based.
The subject of assay [3] is Rattus norvegicus. The assay can be described thus: Antidiuretic acitivity in water-loaded Wistar rat assessed as inhibition of AVP-mediated decrease in urine flow at 100 ug/kg, iv. It is filed as functional, organism-based.
Assay [4] has as its target Vasopressin V1a receptor (Rattus norvegicus) (UniProt P30560). Nature of the assay: Antagonist activity at vasopressin V1a receptor in rat thoracic aorta assessed as inhibition of AVP-induced vascular smooth muscle contraction at 5.9 uM. It is filed as tissue-based.
The target is the same in assay [5]. Nature of the assay: Antagonist activity at vasopressin V1a receptor in rat thoracic aorta assessed as inhibition of AVP-induced vascular smooth muscle contraction at 590 uM. It is filed as tissue-based.
Assay [6] shares this target. The assay can be described thus: Antagonist activity at vasopressin V1a receptor in endothelium-denuded rat thoracic aorta assessed as inhibition of AVP-induced vascular smooth muscle contraction at 10 uM.
For assay [7] the target is unchanged. The assay can be described thus: Antagonist activity at vasopressin V1a receptor in endothelium intact rat thoracic aorta assessed as inhibition of AVP-induced vascular smooth muscle contraction at 10 uM.

Broadly, the inhibition is the change of the read-out against control, counted positive when it falls. With `Cc1ccc(S(=O)(=O)N2CCC(C#N)C(=O)c3ccccc32)cc1` (configuration not stated), the inhibition entry was “Dose-dependent effect” in assay [1], 70% in assay [2] and 25% in assay [4]. For the same compound, the inhibition result in assay [3] and in assay [5] was “Active” each time.
As to `COc1ccc(C[C@@H]2NC(=O)CC(C)(C)SSC[C@@H](C(=O)N3CCC[C@H]3C(=O)N[C@@H](CCCN=C(N)N)C(=O)NCC(N)=O)NC(=O)[C@H](CC(N)=O)NC(=O)[C@H](CCC(N)=O)NC(=O)[C@H](Cc3ccccc3)NC2=O)cc1` (Y(Me)FQNCPRG-NH2; linker N-5 via X1), the inhibition result in assay [6] and in assay [7] was “Active” each time.
